Experimental data as given in patent publication US20060123501A1, “Method for treating inflammatory disorders” (priority 2004, published 2006).
Like-named read-outs stand apart in the source and are kept apart here.

Assays:
peritoneal macrophages = assay: TNF-α and IL-1β production of cultured peritoneal macrophages exposed to LPS (ELISA); type: cell-based, mouse; settings: cIAP2−/− peritoneal macrophages; LPS 0.1 to 1000 ng/ml; 10 and 24 h
Procedure: Spleen- and peritoneal-derived macrophage cell count numbers are shown (A) for cIAP2^−/−, cIAP2^+/− and cIAP2^+/+ mice (n=10). Both cIAP2^−/− and littermate control-derived macrophages stained for the LPS binding surface receptor CD14 (B). The proliferation of B cells for cIAP2^−/− mice and littermate controls of cIAP2^+/+ after culturing with the indicated range of LPS doses (n=6) (C). Cultured macrophages from cIAP2^−/− or littermate control cIAP2^+/+ mice were exposed to LPS for 10 h and subsequently IL-1β (D) or TNF-α (E) levels were measured by ELISA (n=6). Additionally, macrophages were exposed to the indicated range of LPS doses for 24 h and IL-1β (F) or TNF-α (G) levels were determined (n=6). Results are mean±s.d. in triplicate per mouse, P<0.01
This dysfunction may be correlated to a reduced initial number of macrophages, to a block in the LPS-induced signaling pathway, or to an increased apoptotic susceptibility of the cIAP2^−/− macrophages. […]
T and B cells were isolated from mouse lymphoid tissue (spleen) by first mincing and then pressing the tissue through a 10 μm metal mesh and were then counted by using trypan blue exclusion method. […] The resulting cells were then counted by using typan blue exclusion and Diff Quik™ Stain Kit (IMEB INC, San Marcos, Calif.). […] Concentrations of TNF-α and IL-1β, in primary tissue culture supernatants were determined by ELISA kit (R&D Systems).

[1] = system: cIAP2−/− and control mice
Source text: In addition, we exposed cIAP2^−/− mice to a second mode of LPS-induced toxicity, where treatment with D-galactosamine (DGLBN) sensitized mice to endotoxic shock.

[2] = system: peritoneal-derived macrophages; assay: Fas-induced death of peritoneal macrophages with or without LPS pre-treatment (TUNEL); type: cell-based, mouse; settings: LPS 10 μg/ml, 4 h, α-Fas antibody 20 μg/ml
Procedure: Peritoneal-derived macrophages from cIAP2^−/− (lower panels) and cIAP2^+/+ mice (upper panels) were either pre-treated with LPS for 4 h or not pre-treated prior to exposure to α-Fas antibody and then TUNEL stained to assess cell viability (A). Percentages of viable cells (n=5, average of triplicate wells per mouse, P values were <0.01) are shown within each TUNEL stained panel along with the standard deviation. cIAP2^−/−-derived (open shapes) and cIAP2^+/+-derived (solid shapes) T cells were pre-incubated with a range of IL-7 concentrations and then exposed to dexamethasone and T cell survival was monitored over a 12 h period (B) (n=3, average of triplicate wells per mouse, results are mean±s.d., P values at the 12 h point were <0.05). Peritoneal-derived cell numbers are shown for macrophages of cIAP2^−/− mice and littermate control cIAP2^+/+ mice injected i.p. with LPS(C). […]
Confluent primary cultures of peritoneal-derived macrophages were either pre-treated with LPS (10 μg/ml, 4 h) or not pre-treated prior to exposure to α-Fas antibody (20 μg/ml, clone Jo2) and then TUNEL stained (Roche) to assess cell viability. Primary cultures of spleen derived T cells were pre-incubated with a range of IL-7 concentrations (0, 5, and 10 ng/ml) and then exposed to dexamethasone (100 nM) and T cell survival was monitored over a 12 h period.

For lipopolysaccharide [LPS], the “TNF-α and IL-1β levels relative to littermate controls” value (peritoneal macrophages) was “generated comparable levels of TNF-α and IL-1β”, the “Time to demise of the mice” value ([1]; LPS with DGLN, cIAP2−/− mice and control littermates) was < 3 h and the Survival ([1]; cIAP2+/+ mice, LPS 0.5 μg/kg with D-galactosamine 0.6 g/kg i.p.) was 6/6. For the same substance, the Survival ([1]; cIAP2+/+ mice, LPS 1 μg/kg with D-galactosamine 0.6 g/kg i.p.) was 6/6, the Survival ([1]; cIAP2+/+ mice, LPS 5 μg/kg with D-galactosamine 0.6 g/kg i.p.) was 2/6 and the Survival ([1]; cIAP2+/+ mice, LPS 10 μg/kg with D-galactosamine 0.6 g/kg i.p.) was 0/6. For the same substance, the Survival ([1]; cIAP2+/+ mice, LPS 20 μg/kg with D-galactosamine 0.6 g/kg i.p.) was 0/6, the Survival ([1]; cIAP2−/− mice, LPS 0.5 μg/kg with D-galactosamine 0.6 g/kg i.p.) was 6/6 and the Survival ([1]; cIAP2−/− mice, LPS 1 μg/kg with D-galactosamine 0.6 g/kg i.p.) was 6/6. The Survival ([1]; cIAP2−/− mice, LPS 5 μg/kg with D-galactosamine 0.6 g/kg i.p.) was 2/6, the Survival ([1]; cIAP2−/− mice, LPS 10 μg/kg with D-galactosamine 0.6 g/kg i.p.) was 0/6 and the Survival ([1]; cIAP2−/− mice, LPS 20 μg/kg with D-galactosamine 0.6 g/kg i.p.) was 0/6. The “Resistance to Fas-mediated killing with or without pre-exposure to LPS” value ([2]; cIAP2−/− macrophages) was “displayed no difference” and the “Resistance to Fas-induced death after LPS pre-treatment” value ([2]; wild-type macrophages) was “showed the expected resistance to Fas-induced death”.
